Test results: patent publication US20160115540A1, “PRODRUGS AND DRUGS” (Biogen MA Inc., priority 2013, published 2016)
Counter-ions that a name gives are not always drawn.

Test system: brain
Assay: Transcriptional profiling, chronic dosing, EAE mice: brain
Format: in vivo
Excerpt: EAE induction is generally performed by immunization with brain extracts, CNS proteins (such as myelin basic protein), or peptides from such protein emulsified in an adjuvant such as complete Freund's adjuvant, e.g., as described in Linker et al., Brain. 2011 March 134(Pt3): 678-92. […] FIG. 17 depicts exemplary immunophenotyping panels used to analyze various immune cell populations (e.g., T cells, T regulatory cells, NK cells, B cells, myeloid cells). […] The number of independent mice whose tissues were harvested for transcript profiling studies and whose data passed QC is shown in TABLE 15. Animals were exposed to CO2 and whole blood collected via cardiac puncture. Two 100 μl aliquots of whole blood were collected in 1.5 mL microcentrifuge tubes and snap frozen in liquid nitrogen. Peripheral (liver, spleen, kidney and jejunum) and CNS brain (cerebellum, hippocampus, striatum and cortex) tissues were harvested and snap frozen in liquid nitrogen, with special care taken to collect tissues of similar size and from the same location. All samples were stored at -80° C. until RNA extraction was conducted. For RNA preparation, frozen tissues were placed in 2 mL RNAse-free 96-well blocks with 1.5 mL QIAzol Lysis Reagent (QIAgen) and a 3.2 mm stainless steel bead (BioSpec Products, Bartlesville, Okla.). Tissues were disrupted for four cycles of 45 seconds in a Mini-Beadbeater (Biospec Products). RNA was extracted in chloroform and the aqueous phase was mixed with an equal volume of 70% ethanol. Extracted RNA was applied to RNeasy 96 plates and purified by the spin method according to the manufacturer's protocol (RNeasy 96 Universal Tissue Protocol, QIAgen, Hilden Germany). […] Washing and staining of the hybridized arrays were completed as described in the GeneChip Expression analysis technical manual for HT plate arrays using the Genechip® Array Station (Affymetrix, Santa Clara, Calif.) with modifications as described in […] et al. The processed GeneChip® plate arrays were scanned using GeneTitan scanner (Affymetrix, Santa Clara, Calif.). Affymetrix scans were subject to quality control (QC) measures. These tests included a visual inspection of the distribution of raw signal intensities and an assessment of RNA degradation, relative log expression (RLE), and normalized unscaled standard error (NUSE). All sample scans that passed these QC metrics were included in the analysis. All CEL files were subjected to GC-content-based Robust Multi-array Average (GCRMA) normalization (version 2.20.0) (Irizarry R A, et al. Nucleic Acids Res 2003; 31:e15; Li C, et al. Genome Biol 2001; 2:[…]0032). […] Stat Appl Genet Mol Biol 2004; 3:Article3). […] Springer Science+Business Media 2005). Changes in gene expression were studied by applying a linear modeling approach to fit gene expression levels according to the defined groups of samples (e.g. DMF-, MMF-, and Vehicle-treated animals) and Bayesian posterior error analysis as implemented by Smyth (Smyth G K. Stat Appl Genet Mol Biol 2004; 3:Article3). The comparisons considered included: DMF-vs-MMF, DMF-vs-Vehicle, MMF-vs-Vehicle, and Vehicle-vs-Naïve.

| SMILES | Number of differentially expressed genes identified: Brain (100 mpk DMF-vs-90 mpk MMF, 7 h after last dosing) | Number of differentially expressed genes identified: Brain (100 mpk DMF-vs-90 mpk MMF, 12 h after last dosing) | Number of differentially expressed genes identified: Brain (100 mpk DMF-vs-Vehicle, 7 h after last dosing) | Number of differentially expressed genes identified: Brain (100 mpk DMF-vs-Vehicle, 12 h after last dosing) | Number of differentially expressed genes identified: Brain (90 mpk MMF-vs-Vehicle, 7 h after last dosing) | Number of differentially expressed genes identified: Brain (90 mpk MMF-vs-Vehicle, 12 h after last dosing) |
| --- | --- | --- | --- | --- | --- | --- |
| COC(=O)/C=C/C(=O)OC [DMF, dimethyl fumarate] | 31 | 0 | 6 | 0 |  |  |
| COC(=O)/C=C/C(=O)O [MMF, monomethyl fumarate] |  |  |  |  | 158 | 0 |
